Reference: the NIST ThermoML archive (doi:10.1016/j.jct.2018.02.022)
“And” between values parts separate entries of the source, which are not always exact repeats. Identical values can stand only once. Numbers after ± are expanded uncertainties.

Experiment: xn = mol fraction of the nth substance listed
Details: 92.3 kPa, Liquid; for viscosity: Concentric cylinders viscometry; for speed of sound: Frequency=3 MHz, Single path-length method; for mass density: Vibrating tube method

CCO [ethanol] + O
Details	mass density, 293.15 K	mass density, 298.15 K	speed of sound, 293.15 K [m/s]	speed of sound, 298.15 K [m/s]	viscosity, 293.15 K [mPa·s]	viscosity, 298.15 K [mPa·s]
x1 = 0.0024	997.039 ± 3 kg/m3	995.871 ± 3 kg/m3	1487.7 ± 1.8	1501.5 ± 1.8	–	–
x1 = 0.0201	989.54 ± 3.2 kg/m3	988.31 ± 3.2 kg/m3	–	–	1.247 ± 0.17	1.098 ± 0.15
x1 = 0.0202	989.382 ± 3.2 kg/m3	988.159 ± 3.2 kg/m3	1522.5 ± 1.8	1532.7 ± 1.8	–	–
x1 = 0.0295	985.977 ± 3.2 kg/m3	984.669 ± 3.2 kg/m3	1540 ± 1.8	1548.2 ± 1.8	–	–
x1 = 0.0366	983.574 ± 3.2 kg/m3	982.196 ± 3.2 kg/m3	1553 ± 1.8	1559.6 ± 1.8	–	–
x1 = 0.0408	982.27 ± 3.2 kg/m3	980.85 ± 3.2 kg/m3	–	–	1.529 ± 0.21	1.336 ± 0.19
x1 = 0.0497	979.54 ± 3.2 kg/m3	977.99 ± 3.2 kg/m3	–	–	1.648 ± 0.23	1.432 ± 0.2
x1 = 0.0513	978.913 ± 3.2 kg/m3	977.287 ± 3.2 kg/m3	1578 ± 1.8	1581.3 ± 1.8	–	–
x1 = 0.06	976.51 ± 3.2 kg/m3 and 976.452 ± 3.2 kg/m3	974.31 ± 3.2 kg/m3 and 974.729 ± 3.2 kg/m3	1590.8 ± 1.8	1592.1 ± 1.8	1.821 ± 0.26	1.551 ± 0.22
x1 = 0.0707	973.538 ± 3.2 kg/m3	971.631 ± 3.2 kg/m3	1604.2 ± 1.8	1603.2 ± 1.8	–	–
x1 = 0.0796	971.24 ± 3.2 kg/m3	969.17 ± 3.2 kg/m3	–	–	2.045 ± 0.29	1.748 ± 0.24
x1 = 0.0801	971.049 ± 3.2 kg/m3	968.969 ± 3.2 kg/m3	1613.8 ± 1.8	1610.7 ± 1.8	–	–
x1 = 0.0904	968.313 ± 3.2 kg/m3	966.039 ± 3.2 kg/m3	1621.5 ± 1.8	1616.4 ± 1.8	–	–
x1 = 0.0997	965.87 ± 3.2 kg/m3	963.419 ± 3.2 kg/m3	1625.7 ± 1.8	1619 ± 1.8	–	–
x1 = 0.1004	963.75 ± 3.2 kg/m3	961.4 ± 3.2 kg/m3	–	–	2.311 ± 0.32	1.947 ± 0.27
x1 = 0.1294	957.918 ± 3.2 kg/m3	954.963 ± 3.2 kg/m3	1623.8 ± 1.8	1613.3 ± 1.8	–	–
x1 = 0.1497	952.184 ± 3.2 kg/m3	948.951 ± 3.2 kg/m3	1611.9 ± 1.8	1600.1 ± 1.8	–	–
x1 = 0.1499	951.92 ± 3.2 kg/m3	948.9 ± 3.2 kg/m3	–	–	2.72 ± 0.38	2.242 ± 0.31
x1 = 0.1984	935.19 ± 3.2 kg/m3	931.84 ± 3.2 kg/m3	–	–	2.857 ± 0.4	2.371 ± 0.33
x1 = 0.2008	937.088 ± 3.2 kg/m3	933.41 ± 3.2 kg/m3	1566.6 ± 1.8	1553.7 ± 1.8	–	–
x1 = 0.2499	922.7 ± 3.2 kg/m3	918.95 ± 3.2 kg/m3	–	–	2.864 ± 0.4	2.429 ± 0.34
x1 = 0.2503	922.612 ± 3.2 kg/m3	918.708 ± 3.2 kg/m3	1520.2 ± 1.8	1507 ± 1.8	–	–
x1 = 0.2998	908.897 ± 3.2 kg/m3	904.858 ± 3.2 kg/m3	1478.2 ± 1.8	1464.5 ± 1.8	–	–
x1 = 0.3016	908.77 ± 3.2 kg/m3	904.86 ± 3.2 kg/m3	–	–	2.793 ± 0.39	2.339 ± 0.33
x1 = 0.3499	896.37 ± 3.2 kg/m3	892.28 ± 3.2 kg/m3	–	–	2.681 ± 0.38	2.263 ± 0.32
x1 = 0.3507	895.841 ± 3.2 kg/m3	891.711 ± 3.2 kg/m3	1440.4 ± 1.8	1426.2 ± 1.8	–	–
x1 = 0.399	884.54 ± 3.2 kg/m3	880.34 ± 3.2 kg/m3	–	–	2.55 ± 0.36	2.17 ± 0.3
x1 = 0.3992	884.433 ± 3.2 kg/m3	880.239 ± 3.2 kg/m3	1408.9 ± 1.8	1394.2 ± 1.8	–	–
x1 = 0.4495	873.57 ± 3.2 kg/m3	869.34 ± 3.2 kg/m3	–	–	2.405 ± 0.34	2.066 ± 0.29
x1 = 0.4514	873.258 ± 3.2 kg/m3	869.012 ± 3.2 kg/m3	1379 ± 1.8	1363.9 ± 1.8	–	–
x1 = 0.4989	864.28 ± 3.2 kg/m3	860.04 ± 3.2 kg/m3	–	–	2.291 ± 0.32	1.956 ± 0.27
x1 = 0.5002	863.248 ± 3.2 kg/m3	858.963 ± 3.2 kg/m3	1353.5 ± 1.8	1337.9 ± 1.8	–	–
x1 = 0.5494	854.117 ± 3.2 kg/m3	849.801 ± 3.2 kg/m3	1330.4 ± 1.8	1314.5 ± 1.8	–	–
x1 = 0.5495	854.95 ± 3.2 kg/m3	850.72 ± 3.2 kg/m3	–	–	2.177 ± 0.3	1.88 ± 0.26
x1 = 0.6018	845.002 ± 3.2 kg/m3	840.665 ± 3.2 kg/m3	1307.8 ± 1.8	1291.5 ± 1.8	–	–
x1 = 0.6067	844.7 ± 3.2 kg/m3	840.19 ± 3.2 kg/m3	–	–	1.997 ± 0.28	1.744 ± 0.24
x1 = 0.6503	837.27 ± 3.2 kg/m3 and 837.196 ± 3.2 kg/m3	832.95 ± 3.2 kg/m3 and 832.839 ± 3.2 kg/m3	1288.5 ± 1.8	1271.8 ± 1.8	1.895 ± 0.27	1.659 ± 0.23
x1 = 0.6956	830.42 ± 3.2 kg/m3	826.05 ± 3.2 kg/m3	–	–	1.788 ± 0.25	1.572 ± 0.22
x1 = 0.7006	829.434 ± 3.2 kg/m3	825.07 ± 3.2 kg/m3	1269.1 ± 1.8	1252.3 ± 1.8	–	–
x1 = 0.7355	824.262 ± 3.2 kg/m3	819.907 ± 3.2 kg/m3	1256 ± 1.8	1239.1 ± 1.8	–	–
x1 = 0.75	822.4 ± 3.2 kg/m3	818.03 ± 3.2 kg/m3	–	–	1.68 ± 0.24	1.483 ± 0.21
x1 = 0.7843	817.86 ± 3.2 kg/m3	813.49 ± 3.2 kg/m3	–	–	1.612 ± 0.23	1.43 ± 0.2
x1 = 0.7965	815.831 ± 3.2 kg/m3	811.475 ± 3.2 kg/m3	1234.1 ± 1.8	1217 ± 1.8	–	–
x1 = 0.8433	809.567 ± 3.2 kg/m3	805.219 ± 3.2 kg/m3	1217.4 ± 1.8	1200.2 ± 1.8	–	–
x1 = 0.8475	809.97 ± 3.2 kg/m3	805.63 ± 3.1 kg/m3	–	–	1.518 ± 0.21	1.342 ± 0.19
x1 = 0.8864	804.22 ± 3.1 kg/m3	799.93 ± 3.1 kg/m3	–	–	1.42 ± 0.2	1.271 ± 0.18
x1 = 0.892	803.132 ± 3.2 kg/m3	798.808 ± 3.2 kg/m3	1199.7 ± 1.8	1182.5 ± 1.8	–	–
x1 = 0.9093	800.938 ± 3.2 kg/m3	796.615 ± 3.2 kg/m3	1193.5 ± 1.8	1176.3 ± 1.8	–	–
x1 = 0.9207	799.51 ± 3.2 kg/m3	795.193 ± 3.1 kg/m3	1189.5 ± 1.8	1172.3 ± 1.8	–	–
x1 = 0.929	798.49 ± 3.1 kg/m3	794.19 ± 3.1 kg/m3	–	–	1.341 ± 0.19	1.204 ± 0.17
x1 = 0.9307	798.225 ± 3.2 kg/m3	793.91 ± 3.1 kg/m3	1185.8 ± 1.8	1168.6 ± 1.8	–	–
x1 = 0.9398	797.133 ± 3.2 kg/m3	792.821 ± 3.1 kg/m3	1182.6 ± 1.8	1165.4 ± 1.8	–	–
x1 = 0.9483	796.043 ± 3.1 kg/m3	791.735 ± 3.1 kg/m3	1179.4 ± 1.8	1162.3 ± 1.8	–	–
x1 = 0.9603	794.596 ± 3.1 kg/m3	790.291 ± 3.1 kg/m3	1175.3 ± 1.8	1158.1 ± 1.8	–	–
x1 = 0.9702	793.374 ± 3.1 kg/m3	789.073 ± 3.1 kg/m3	1171.7 ± 1.8	1154.5 ± 1.8	–	–
x1 = 0.9801	792.038 ± 3.1 kg/m3	787.741 ± 3.1 kg/m3	1168.5 ± 1.8	1151.3 ± 1.8	–	–
x1 = 0.9895	791.076 ± 3.1 kg/m3	786.779 ± 3.1 kg/m3	1165 ± 1.8	1147.8 ± 1.8	–	–
x1 = 1	789.547 ± 3 kg/m3	785.26 ± 3 kg/m3	1160.7 ± 1.8	1143.5 ± 1.8	1.202 ± 0.17	1.091 ± 0.15
